Drawing on article PMC5316530, “The Ratio of 2-AG to Its Isomer 1-AG as an Intrinsic Fine Tuning Mechanism of CB1 Receptor Activation” (Frontiers in Cellular Neuroscience, 2017), this text covers EC50 for 2 compounds.

The target of this test is T1, CB1 receptor (Mus musculus, UniProt P47746).
T1 construct: gene Cnr1; pcDNA3 CB1 (Addgene plasmid # 13391) overexpressed in COS7 cells
Briefly: Fluo-8 Ca2+ imaging in CB1-transfected COS7 cells; concentration-response, blocked by AM251. Format: cell-based.

SMILES strings stand for the structures.

T1 sequence (P47746 whole entry): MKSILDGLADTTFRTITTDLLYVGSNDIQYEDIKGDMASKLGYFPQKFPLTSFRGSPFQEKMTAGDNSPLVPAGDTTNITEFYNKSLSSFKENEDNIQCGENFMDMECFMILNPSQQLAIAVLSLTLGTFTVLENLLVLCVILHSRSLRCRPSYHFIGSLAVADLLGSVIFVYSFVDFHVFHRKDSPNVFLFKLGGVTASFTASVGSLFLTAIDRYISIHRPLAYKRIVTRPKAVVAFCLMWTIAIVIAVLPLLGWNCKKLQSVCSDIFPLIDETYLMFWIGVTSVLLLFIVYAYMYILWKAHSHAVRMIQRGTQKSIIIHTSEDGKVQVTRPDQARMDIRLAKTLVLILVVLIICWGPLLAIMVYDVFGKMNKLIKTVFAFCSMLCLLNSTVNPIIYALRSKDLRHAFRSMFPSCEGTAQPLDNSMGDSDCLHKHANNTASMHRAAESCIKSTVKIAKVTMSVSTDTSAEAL

The term EC50 denotes the concentration that produces a half-maximal response. Consider `CCCCC/C=C\C/C=C\C/C=C\C/C=C\CCCC(=O)OC[C@@H](O)CO` [1-AG], for which it took 1900 nM to reach a half-maximal effect (EC50). Take `CCCCC/C=C\C/C=C\C/C=C\C/C=C\CCCC(=O)OC(CO)CO` [2-AG]: a half-maximal effect (EC50) was put at 600 nM. This EC50 lies about 3.2-fold lower than the previous one.
